Assay results: paper PMC7504735, “Enhanced Antigiardial Effect of Omeprazole Analog Benzimidazole Compounds” (Molecules, 2020)

How the values were obtained:
[1] = tested on: Caco-2 cells; assay: in vitro; assay type: cell-based
Method: (§1) The cytotoxicity of compounds was investigated on human cell lines Caco-2 (ATCC HTB-37) and HT-29 (ATCC HHTB-38), using a Cell Proliferation Kit II (XTT; St Louis, MO, USA) according to the manufacturer’s instructions. A cell suspension of 10^5 cells/mL was prepared in Dulbecco’s modified Eagle’s (DMEM); medium supplemented with 10% inactivated fetal bovine serum and 1% Penicillin/streptomycin (5000 U/mL), from confluent cultures, and […] portions of the suspension were added to the wells of 96-well plates. […] Solutions of the compound were prepared and sterilized as described in Section 3.4.1 of Materials and Methods. Then, 150 μL of two-fold serial dilutions of each of the compounds, starting at a concentration of 500 µM, in a culture medium at a concentration of 0.3% DMSO, were prepared in the plates. […] Each compound was assayed in triplicate via three independent experiments.

[2] = in vitro; assay type: cell-based; details: human, Caco-2; for CC50 at 48 h: XTT; for selectivity ratio at 48 h: ratio of CC50/IC50 between mammal cells and trophozoites, read-out: Selectivity index (SI), CC50 Caco-2 / IC50 trophozoites; for viability at 48 h, 500 µM: read-out: Viability of Caco-2 cells (lowered to)
Method: as §1

[3] = tested on: Giardia lamblia trophozoites; assay: Antigiardial activity on G. lamblia trophozoites, trypan blue dye exclusion; assay type: cell-based; details: Giardia duodenalis, 48 h at 37 °C, pH 7.4, trypan blue
Method: Giardia lamblia WB strain (ATCC number 30957) was grown in a modified TYI-S-33 medium supplemented with 10% fetal bovine serum. The parasite was cultivated in 15 mL screw-capped borosilicate glass tubes containing 13 mL medium. The tubes were incubated on a 15° horizontal slant at 37 °C. Giardia was harvested from confluent culture by chilling the tubes on ice for 5‒10 min to detach cells, followed by centrifugation at 800× g for 5 min.
The antigiardial activity of the prepared compounds was tested as described. One milligram of a test compound was dissolved in 10 L of DMSO and topped up with 1 mL growth medium. The solution was filter-sterilized using 0.22-m syringe filters and the appropriate volumes of the solutions were taken to prepare the concentration of each compound in 1.5 mL microtubes. For each preparation, concentrations of 500, 250, 125, 62, and 31 µg/mL were prepared in a final volume of 1.5 mL. Each tube was inoculated with 5 × 10^4 trophozoites of G. lamblia and then incubated for 48 h at 37 °C. After incubation, 75 L of the treated trophozoites were subcultured individually for another 48 h in a fresh medium free of compounds. At the end of this period, the viable trophozoites were counted. Each compound was assayed in duplicate in three independent experiments. In each assay, appropriate controls were also tested, including a sample without compound and another with DMSO.
The parasites in each tube were counted using a standard hemocytometer at 10× objective. In each count, trypan blue was employed to distinguish live parasites from dead ones. To permit detachment of Giardia, the tubes were placed on ice for 10 min and the parasites were then centrifuged at 800× g for 10 min. The supernatant was discarded and 1 mL fresh medium was added to each tube. The final suspension was prepared by mixing 25 μL of the parasite suspension in each tube with 100 μL of 0.4% trypan blue in phosphate-buffered saline (PBS). The 50% inhibitory concentration (IC50) was employed as a parameter for biological activity. The IC50 is the concentration of compounds that cuts the number of parasites to half that in the negative control (growth medium + DMSO + parasites). Lastly, the 50% inhibitory concentration (IC50) was calculated.

[4] = tested on: HT29 cells; assay: In vitro cytotoxicity, XTT assay, HT29; assay type: cell-based, human; details: for Selectivity index (SI), CC50 HT29 / IC50 trophozoites: ratio of CC50/IC50 between mammal cells and trophozoites
Method: as §1

[5] = In vitro cytotoxicity, XTT assay, HT29; assay type: cell-based, human; details: human, HT-29 cells; for CC50 at 48 h: XTT; for viability at 48 h, 500 µM: read-out: Viability of HT-29 cells (lowered to)
Method: as §1

[6] = target: T1, triosephosphate isomerase (TPI) (Giardia intestinalis, UniProt P36186); assay: Inactivation of recombinant TPI enzyme with compounds; assay type: biochemical; details: for Loss (reduction) of TPI enzyme activity: 500 µM compound, 2 h at 37 °C
T1 construct: His-tag (TEV-cleavable) (cleaved yes); made in house
T1 sequence (P36186 whole entry): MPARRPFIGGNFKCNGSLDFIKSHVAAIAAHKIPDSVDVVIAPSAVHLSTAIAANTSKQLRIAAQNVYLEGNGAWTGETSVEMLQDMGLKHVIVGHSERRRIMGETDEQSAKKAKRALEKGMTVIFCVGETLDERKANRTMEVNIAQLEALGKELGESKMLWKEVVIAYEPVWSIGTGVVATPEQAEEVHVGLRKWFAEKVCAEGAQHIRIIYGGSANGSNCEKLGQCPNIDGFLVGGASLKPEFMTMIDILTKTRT
Method: The TPI from G. lamblia was expressed and purified. […] When the culture reached A600 = 0.8, it was induced using 0.4 mM IPTG and incubated overnight at 30 °C with shaking at 180 rpm. After the bacteria were collected by centrifugation (10,000× g, 15 min) and suspended in 40 mL of lysis buffer, pH 8.0 (50 mM Tris, 50 mM NaCl, 5 mM β-mercaptoethanol, and 1 mM phenylmethylsulfonyl fluoride). The bacterial suspension was disrupted by sonication and centrifuged at 9000× g for 1 h at 4 °C. Protein purification was performed by immobilized metal affinity chromatography (IMAC) using a Profinity Ni^2+ charged resin (Bio-Rad) previously reported by Enriquez-Flores et al.. The His-tag sequence was removed from the TIM by incubation with TEVP at a molar ratio of 30:1 (TPI/TEVP) at room temperature for 17 h in digestion buffer, pH 8.0 (50 mM Tris, 0.5 mM ethylene diamine tetraacetic acid (EDTA), and 1 mM dithiothreitol). The enzyme concentration was spectrophotometrically determined at 280 nm, and the enzyme was used immediately.
Enzyme activity of TPI was determined spectrophotometrically as described by monitoring the conversion of glyceraldehyde-3-phosphate (GAP) to dihydroxyacetone phosphate (DHAP). […] The standard reaction mixture contained 1 mM GAP, 0.2 mM NADH, and 0.9 units/mL of α-GDH in TE buffer (100 mM triethanolamine, 10 mM EDTA, pH 7.4). The reaction was initiated by adding 5 ng/mL of TPI to the reaction mixture.
To determine the inactivation of the TPI enzyme from G. lamblia, we performed inactivation assays of the enzyme in the presence of the synthesized compounds. The compounds’ stock solutions were freshly prepared using 100% dimethyl sulfoxide (DMSO) as the solvent at 25 mM. […] After the incubation period, the enzymatic activity was measured by withdrawing an aliquot of each experimental condition, as described above. The results were expressed in terms of the percentage of activity versus the compound’s concentration.

[7] = 500 µM (highest concentration tested)

SMILES	Cell viability decrease, Caco-2 [1, 7]	CC50 at 48 h [2]	selectivity ratio at 48 h [2]	IC50 [3]	Cell viability decrease, HT29 [4, 7]	Selectivity index (SI), CC50 HT29 / IC50 trophozoites [4]	CC50 at 48 h [5]	IC50 [6]	Loss (reduction) of TPI enzyme activity [6]	CC50 ([1]; XTT, 48 h)	CC50 ([4]; XTT, 48 h)	Cell viability decrease, Caco-2 ([1]; 150 µM)	viability at 48 h, 500 µM [2]	Cell viability decrease, HT29 ([4]; 150 µM)	viability at 48 h, 500 µM [5]	Enhancement of TPI inactivation (IC50) with respect to BHO2 [6]
COc1c(C)cnc(C[S+]([O-])c2nc3ccccc3[nH]2)c1C (stereo not drawn) [H-BZM2, 2-[(4-methoxy-3,5-dimethylpyridin-2-yl)methanesulfinyl]-1H-benzimidazole]	approximately 20%	3180 µM	88	36 µM	approximately 20%	53	1910 µM	37 µM	100%							
Cc1c(OCC(F)(F)F)ccnc1C[S+]([O-])c1nc2ccccc2[nH]1 (stereo not drawn) [Lansoprazole, 2-{[3-methyl-4-(2,2,2-trifluoroethoxy)pyridin-2-yl]methanesulfinyl}-1H-benzimidazole, reference compound]	approximately 20%		59	45 µM	approximately 20%	12		66 µM	100%	2640 µM	548 µM					
O=[N+]([O-])c1ccc2nc([S+]([O-])Cc3ccccn3)[nH]c2c1 (stereo not drawn) [O2N-BZM7, 5-nitro-2-[(pyridin-2-yl)methanesulfinyl]-1H-benzimidazole]		640 µM	45	14 µM		37	519 µM	12 µM	100%			around 20%	~50%	around 20%	~50%	5.3 fold
Cc1c(OCC(F)(F)F)ccnc1C[S+]([O-])c1nc2ccc([N+](=O)[O-])cc2[nH]1 (stereo not drawn) [O2N-BZM9, 2-{[3-methyl-4-(2,2,2-trifluoroethoxy)pyridin-2-yl]methanesulfinyl}-5-nitro-1H-benzimidazole]		663 µM	39	17 µM		36	622 µM	20 µM	100%			around 20%	~50%	around 20%	~50%	3.2 fold
